Measured values reported in patent US9255110B2 (Hoffmann-La Roche Inc., priority 2010, dated 2016).
Where a name gives a salt, the structure may show the parent alone.

Assays:
Type in all cases: biochemical
IRAK-4 = IRAK-4 (Homo sapiens (Human), UniProt Q9NWZ3); experiment: In vitro IRAK-4 kinase assay; details: purified recombinant IRAK-4, 50 uM ATP, 33P peptide phosphorylation
How it was run: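 Recombinant IRAK-4 or IRAK-1 incubated with 250 uM synthetic peptide in MOPS pH7.2 kinase buffer with 50 uM ATP, 20 mM MgCl2 and γ-33P ATP for the indicated time. Phosphorylated peptide captured on phosphocellulose, washed with phosphoric acid, quantified by scintillation counting.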

IRAK-1 = IRAK-1 (Homo sapiens (Human), UniProt P51617); experiment: In vitro IRAK-1 kinase assay; details: purified recombinant IRAK-1, 50 uM ATP, 33P peptide phosphorylation
Description: Purified recombinant IRAK-4 protein was incubated with 250 uM synthetic peptide ([…]) in 30 ul of kinase buffer including (20 mM MOPS pH7.2, 25 mM beta glycerol phosphate, 5 mM EGTA, 1 mM sodium orthovanadate, 1 mM DTT, 50 uM ATP, 20 mM MgCl2, 10 uCi γ-^33P, 0.1% BSA) for the indicated time. For purified recombinant IRAK-1 protein kinase assay, 50 uM ATP was used. A 25 ul aliquot of the reaction mixture was transferred on to p81 phosphocellulose squares (Upstate Biotechnology, Lake Placid, N.Y.). The assay squares were washed three times with 0.75% phosphoric acid and once with acetone. Enzyme activity was measured by determining the bound radioactivity by liquid scintillation counting.

human full length SYK = human full length SYK (Homo sapiens (Human), UniProt P43405); experiment: In vitro SYK kinase assay; details: 20 uM ATP, 33P peptide phosphorylation
Description: Spleen tyrosine kinase (SYK) is a tyrosine kinase that plays an important role in B cell signal transduction. SYK activity is measured by phosphorylation of a peptide substrate (Biotin-[…]) with [gamma-^33P] ATP. The enzyme reaction was conducted at 20 uM ATP with 0.05 uCi [gamma-^33P]ATP (2 uCi for 40 ul assay) and 10 uM peptide substrate at final volume of 40 ul in buffer containing 50 mM Hepes, pH 7.2, 1 mM dithiothreitol, 10 mM MgCl2, 100 uM Na3VO4, 0.1% BSA and 10% DMSO. The enzyme assay was carried out with human full length SYK in the presence or absence of ten compound concentrations. SYK and compound were pre-incubated for 10 minutes. Then, the enzymatic reaction was initiated by addition of ATP and peptide substrate. The reaction mixture was incubated at room temperature for 30 minutes. At the end of incubation, the reaction was terminated by transferring 25 ul of the reaction mixture to 100 ul of 10% streptavidin slurry containing 100 mM EDTA. The reaction product was captured on the affinity resin and sequentially washed on a filtration plate (Millipore, MABVNOB50) with 2M NaCl, 2M M NaCl in 1% phosphoric acid and water to remove free radio nucleotide. Then the incorporation of ^33P into peptide substrate was quantified on a microplate scintillation counter. Compound inhibition potency on SYK was measured by IC50 value generated from ten concentration inhibition curve fitted into the 3-parameter model: % inhibition=Maximum/(1+(IC50/[Inhibitor])^slope). Data were analyzed on Microsoft Excel for parameter estimation.

IRAK-1, sequence (P51617 whole entry, species assumed): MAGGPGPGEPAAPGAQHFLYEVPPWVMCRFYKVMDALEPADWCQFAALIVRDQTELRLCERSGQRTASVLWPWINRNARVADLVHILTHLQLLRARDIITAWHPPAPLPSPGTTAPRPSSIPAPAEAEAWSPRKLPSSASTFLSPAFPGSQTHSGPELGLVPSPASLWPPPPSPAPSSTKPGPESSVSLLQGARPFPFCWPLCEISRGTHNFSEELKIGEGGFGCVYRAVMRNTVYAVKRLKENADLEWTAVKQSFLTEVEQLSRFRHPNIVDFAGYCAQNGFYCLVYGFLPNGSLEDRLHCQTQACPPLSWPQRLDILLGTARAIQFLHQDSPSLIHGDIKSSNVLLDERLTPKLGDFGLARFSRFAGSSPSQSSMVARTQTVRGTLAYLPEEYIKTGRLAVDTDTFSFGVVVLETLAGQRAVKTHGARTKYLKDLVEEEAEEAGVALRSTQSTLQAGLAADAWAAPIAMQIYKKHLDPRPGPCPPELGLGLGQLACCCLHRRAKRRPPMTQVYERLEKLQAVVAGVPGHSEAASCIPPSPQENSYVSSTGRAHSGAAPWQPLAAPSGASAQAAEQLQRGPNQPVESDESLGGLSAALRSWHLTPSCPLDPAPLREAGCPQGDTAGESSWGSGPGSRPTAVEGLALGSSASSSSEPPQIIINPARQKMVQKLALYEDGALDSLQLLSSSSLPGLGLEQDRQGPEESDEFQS
IRAK-4, sequence (Q9NWZ3 whole entry, species assumed): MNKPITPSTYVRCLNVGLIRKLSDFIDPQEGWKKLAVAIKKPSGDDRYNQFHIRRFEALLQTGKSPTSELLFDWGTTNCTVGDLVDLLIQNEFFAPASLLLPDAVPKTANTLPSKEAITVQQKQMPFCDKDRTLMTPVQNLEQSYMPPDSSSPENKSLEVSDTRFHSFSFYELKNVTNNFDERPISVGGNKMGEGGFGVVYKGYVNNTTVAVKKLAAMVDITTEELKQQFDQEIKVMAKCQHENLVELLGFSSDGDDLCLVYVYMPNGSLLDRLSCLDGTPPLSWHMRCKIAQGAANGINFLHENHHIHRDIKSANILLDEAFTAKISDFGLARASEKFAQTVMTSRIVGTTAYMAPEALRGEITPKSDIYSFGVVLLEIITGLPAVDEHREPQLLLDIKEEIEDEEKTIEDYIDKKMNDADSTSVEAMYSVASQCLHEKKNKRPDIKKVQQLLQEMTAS

| SMILES | IC50 (IRAK-4) | IC50 (IRAK-1) | IC50 (human full length SYK) |
| --- | --- | --- | --- |
| COc1ccc(Cl)cc1NC(=O)c1csc2cnc(NCCN)nc12 [Example 53] | 107 nM | 813 nM | 350 nM |
| O=C(Nc1cc2cccnc2cc1O[C@H]1CC[C@H](O)CC1)c1csc2cncnc12 | 11 nM | 168 nM |  |
| O=C(Nc1cc(Cl)ccc1O[C@H]1CC[C@H](O)CC1)c1csc2cncnc12 [Example 81, Thieno[3,2-d]pyrimidine-7-carboxylic acid [5-chloro-2-(4-hydroxy-cyclohexyloxy)-phenyl]-amide] | 338 nM | 600 nM |  |
| COc1cc2ncccc2cc1NC(=O)c1csc2cnc(NCCO)nc12 [Example 45, 2-(2-Hydroxy-ethylamino)-thieno[3,2-d]pyrimidine-7-carboxylic acid (7-methoxy-quinolin-6-yl)-amide] | 76 nM |  | 216 nM |
| COc1cc2ncccc2cc1NC(=O)c1csc2cnc(NCC(O)CO)nc12 (stereo not drawn) [Example 47, 2-(2,3-Dihydroxy-propylamino)-thieno[3,2-d]pyrimidine-7-carboxylic acid (7-methoxy-quinolin-6-yl)-amide] | 82 nM | 608 nM |  |
| O=C(Nc1cc2cccnc2cc1O[C@@H]1CC[C@@H](O)C1)c1csc2cncnc12 (stereo in doubt) [hydrochloride] | 15 nM | 246 nM |  |
| NCCCOc1cc2ncccc2cc1NC(=O)c1csc2cncnc12 [Example 51, Thieno[3,2-d]pyrimidine-7-carboxylic acid [7-(3-amino-propoxy)-quinolin-6-yl]-amide] | 103 nM | 529 nM | 376 nM |
| CC(C)(CCO)Oc1cc2ncccc2cc1NC(=O)c1csc2cncnc12 [Example 35, Thieno[3,2-d]pyrimidine-7-carboxylic acid [7-(3-hydroxy-1,1-dimethyl-propoxy)-quinolin-6-yl]-amide hydrochloride] | 49 nM | 364 nM |  |
| O=C(Nc1cc2cccnc2cc1OC1CCC(O)CC1)c1cnn2cccnc12 (stereo not drawn) [Example 23] | 29 nM |  | 103 nM |
| O=C(Nc1cc2cccnc2cc1O[C@@H]1CC[C@H](O)C1)c1csc2cncnc12 [Example 54, hydrochloride] | 122 nM |  | 500 nM |
| COc1cc2ncccc2cc1NC(=O)c1csc2cnc(N[C@H](C)CO)nc12 [Example 39, 2-(2-Hydroxy-1-methyl-ethylamino)-thieno[3,2-d]pyrimidine-7-carboxylic acid (7-methoxy-quinolin-6-yl)-amide] | 63 nM |  | 492 nM |
| COc1cc2ncccc2cc1NC(=O)c1csc2cnc(N(C)CCO)nc12 [Example 24] | 29 nM | 300 nM |  |
| NCC1CCN(c2cc3ncccc3cc2NC(=O)c2csc3cncnc23)CC1 [Example 14, hydrochloride] | 12 nM | 850 nM |  |
| O=C(Nc1cc(Cl)ccc1O[C@H]1CC[C@@H](O)CC1)c1csc2cncnc12 [Example 62, Thieno[3,2-d]pyrimidine-7-carboxylic acid [5-chloro-2-(4-hydroxy-cyclohexyloxy)-phenyl]-amide] | 149 nM | 126 nM |  |
| COc1cc2ncccc2cc1NC(=O)c1csc2cc(CO)cnc12 [Example 30, 6-Hydroxymethyl-thieno[3,{tildeover (2)}beta] pyridine-3-carboxylic acid (7-methoxy-quinolin-6-yl)-amide] | 35 nM |  | 746 nM |
| COc1cc2ncccc2cc1NC(=O)c1csc2cnc(NCCN)nc12 | 10 nM | 712 nM | 17 nM |
| COc1cc2ncccc2cc1NC(=O)c1csc2cnc(NC3CC3)nc12 [Example 43, 2-Cyclopropylamino-thieno[3,2-d]pyrimidine-7-carboxylic acid (7-methoxy-quinolin-6-yl)-amide] | 74 nM | 575 nM | 810 nM |
| CC(O)CC(C)Oc1cc2ncccc2cc1NC(=O)c1csc2cncnc12 (stereo not drawn) | 24 nM | 760 nM | 449 nM |

Next, values leading:

| IC50 (IRAK-4) | IC50 (IRAK-1) | IC50 (human full length SYK) | SMILES |
| --- | --- | --- | --- |
| 24 nM | 644 nM |  | O=C(Nc1cc(Cl)ccc1N1CCCCC1)c1cnn2cc(O)cnc12 [Example 20, 6-Hydroxy-pyrazolo[1,5-a]pyrimidine-3-carboxylic acid (5-chloro-2-piperidin-1-yl-phenyl)-amide] |
| 53 nM | 307 nM |  | CN(C)CC1CCN(c2ccc(Cl)cc2NC(=O)c2cnn3cc(O)cnc23)CC1 [Example 37, 6-Hydroxy-pyrazolo[1,5-alpha]pyrimidine-3-carboxylic acid [5-chloro-2-(4-dimethyl-aminomethyl-piperidin-1-yl)-phenyl]-amide] |
| 49 nM |  | 478 nM | O=C1Cc2cc(N3CCC(CO)CC3)c(NC(=O)c3cnn4cccnc34)cc2N1 [Example 34, Pyrazolo[1,5-alpha]pyrimidine-3-carboxylic acid [5-(4-hydroxymethyl-piperidin-1-yl)-2-oxo-2,3-dihydro-1H-indol-6-yl]-amide] |
| 76 nM | 897 nM |  | CC(O)C1CCN(c2ccc(Cl)cc2NC(=O)c2cnn3cccnc23)C1 (stereo not drawn) [Example 44, Pyrazolo[1,{tildeover (5)}-alpha] pyrimidine-3-carboxylic acid {5-chloro-2-[3-(1-hydroxy-ethyl)-pyrrolidin-1-yl]-phenyl}-amide] |
| 124 nM | 817 nM | 628 nM | O=C(Nc1cc2ccccc2cc1OC1CCC(O)CC1)c1cnn2cccnc12 (stereo not drawn) [Example 55, Pyrazolo[1,5-alpha]pyrimidine-3-carboxylic acid [3-(4-hydroxy-cyclohexyloxy)-napthalen-2-yl]-amide] |
| 69 nM |  | 500 nM | NC(=O)C1CCN(c2ccc(Cl)cc2NC(=O)c2cnn3cccnc23)CC1 [Example 40, Pyrazolo[1,5-alpha]pyrimidine-3-carboxylic acid [2-(4-carbamoyl-piperidin-1-yl)-5-chloro-phenyl]-amide] |
| 459 nM |  | 806 nM | O=C(Nc1cc(Cl)ccc1OC1CCC(O)CC1)c1cnn2cccnc12 (stereo not drawn) [Example 90, Pyrazolo[1,5-alpha]pyrimidine-3-carboxylic acid [5-chloro-2-(4-hydroxy-cyclohexyloxy)-phenyl]-amide] |
| 100 nM | 700 nM |  | O=C(Nc1cc(Cl)ccc1N1CCC(CO)CC1)c1csc2cncnc12 [Example 49, Thieno[3,2-d]pyrimidine-7-carboxylic acid [5-chloro-2-(4-hydroxymethyl-piperidin-1-yl)-phenyl]-amide] |
| 361 nM |  | 656 nM | O=C(Nc1cc(Cl)ccc1OC1CCC(O)C1)c1cnn2cccnc12 (stereo not drawn) [Example 83, Pyrazolo[1,5-alpha]pyrimidine-3-carboxylic acid [5-chloro-2-(3-hydroxy-cyclopentyloxy)-phenyl]-amide] |
